Reference: patent US9334231B2, “Photoreactive synthetic regulator of protein function and methods of use thereof” (The Regents of the University of California, priority 2008, dated 2016)
Where a name gives a salt, the structure may show the parent alone. Blank lines part the entries; values can stand above or below the compound they belong to.

Assays:
[1] = illumination at 420 nm
[2] = tested on: endogenous K+ channels in dissociated hippocampal neurons; conditions: preincubation at 300 nM; cited from earlier work
[3] = target: T1, Sh-IR internal TEA binding site (Drosophila melanogaster, UniProt P08510, DEL6-46); test: Inside-out patches from HEK293 cells expressing Sh-IR, dose-response under 380 and 500 nm light; format: cell-based; conditions: inside-out patch
T1 construct: expressed in transfected cells; host or cells: HEK293 / HEK293T cells, calcium phosphate transfection
T1 sequence (P08510 with tags, fused parts or gaps DEL6-46): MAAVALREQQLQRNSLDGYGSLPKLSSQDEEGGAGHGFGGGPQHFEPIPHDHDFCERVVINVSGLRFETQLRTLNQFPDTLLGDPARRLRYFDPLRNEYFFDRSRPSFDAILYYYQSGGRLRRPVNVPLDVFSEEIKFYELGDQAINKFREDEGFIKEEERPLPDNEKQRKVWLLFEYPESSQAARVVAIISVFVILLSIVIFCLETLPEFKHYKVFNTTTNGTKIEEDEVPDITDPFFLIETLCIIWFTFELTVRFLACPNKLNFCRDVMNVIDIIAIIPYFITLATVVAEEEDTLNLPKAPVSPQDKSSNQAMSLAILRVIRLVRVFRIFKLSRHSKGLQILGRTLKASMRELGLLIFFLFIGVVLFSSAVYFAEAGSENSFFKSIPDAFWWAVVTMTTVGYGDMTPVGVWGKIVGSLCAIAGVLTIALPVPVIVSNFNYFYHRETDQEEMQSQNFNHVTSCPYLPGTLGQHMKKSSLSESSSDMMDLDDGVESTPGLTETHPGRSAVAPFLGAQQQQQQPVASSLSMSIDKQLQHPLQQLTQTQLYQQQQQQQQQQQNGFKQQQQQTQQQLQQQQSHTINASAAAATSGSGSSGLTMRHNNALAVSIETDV

[4] = target: T2, Shaker IR channels (Sh-IR) (Drosophila melanogaster, UniProt P08510, DEL6-46); test: Whole-cell patch clamp of HEK293 cells expressing Shaker IR after AAQ/EtAcAQ/AcAQ treatment; format: cell-based; conditions: 500-nm and 380-nm light; for block of steady-state current: after blocker pre-treatment (400 uM in FIG. 2)
T2 construct: expressed in transfected cells; host or cells: HEK293 / HEK293T cells, calcium phosphate transfection
T2 sequence (P08510 other isoform, or with tags, fused parts or gaps DEL6-46): as the sequence (P08510 with tags, fused parts or gaps DEL6-46) above

[5] = tested on: endogenous K+ channels in dissociated hippocampal neurons
[6] = target: T3, Sh-IR (Drosophila melanogaster, UniProt P08510, DEL6-46); test: AzoQA structure-activity screen: HEK293T cells expressing Sh-IR, applied in dark, washout, whole-cell voltage clamp; format: cell-based; conditions: for isomer preference of block: cis (380 nm) versus trans (500 nm)
T3 construct: expressed in transfected cells; host or cells: HEK293 / HEK293T cells, calcium phosphate transfection
T3 sequence (P08510 other isoform, or with tags, fused parts or gaps DEL6-46): as the sequence (P08510 with tags, fused parts or gaps DEL6-46) above
Description: Solutions were adjusted to 300-310 mOsm.
These AzoQA's were applied in dark, which favors the trans configuration, at various concentrations to HEK293T cells expressing Sh-IR, followed by washout and whole-cell voltage clamp recording.

[7] = tested on: Kν channels; test: Stated characteristics of exemplary synthetic regulators (channel block)
[8] = Isomerization wavelengths of red-shifted regulator; format: physicochemical
[9] = target: T4, TRPV1 (Homo sapiens, UniProt Q8NER1); test: Loading of QAQ through TRPV1 in cells co-expressing Shaker channel; format: cell-based
T4 construct: expressed in transfected cells; the context is HEK cells
T4 sequence (Q8NER1 whole entry, species assumed): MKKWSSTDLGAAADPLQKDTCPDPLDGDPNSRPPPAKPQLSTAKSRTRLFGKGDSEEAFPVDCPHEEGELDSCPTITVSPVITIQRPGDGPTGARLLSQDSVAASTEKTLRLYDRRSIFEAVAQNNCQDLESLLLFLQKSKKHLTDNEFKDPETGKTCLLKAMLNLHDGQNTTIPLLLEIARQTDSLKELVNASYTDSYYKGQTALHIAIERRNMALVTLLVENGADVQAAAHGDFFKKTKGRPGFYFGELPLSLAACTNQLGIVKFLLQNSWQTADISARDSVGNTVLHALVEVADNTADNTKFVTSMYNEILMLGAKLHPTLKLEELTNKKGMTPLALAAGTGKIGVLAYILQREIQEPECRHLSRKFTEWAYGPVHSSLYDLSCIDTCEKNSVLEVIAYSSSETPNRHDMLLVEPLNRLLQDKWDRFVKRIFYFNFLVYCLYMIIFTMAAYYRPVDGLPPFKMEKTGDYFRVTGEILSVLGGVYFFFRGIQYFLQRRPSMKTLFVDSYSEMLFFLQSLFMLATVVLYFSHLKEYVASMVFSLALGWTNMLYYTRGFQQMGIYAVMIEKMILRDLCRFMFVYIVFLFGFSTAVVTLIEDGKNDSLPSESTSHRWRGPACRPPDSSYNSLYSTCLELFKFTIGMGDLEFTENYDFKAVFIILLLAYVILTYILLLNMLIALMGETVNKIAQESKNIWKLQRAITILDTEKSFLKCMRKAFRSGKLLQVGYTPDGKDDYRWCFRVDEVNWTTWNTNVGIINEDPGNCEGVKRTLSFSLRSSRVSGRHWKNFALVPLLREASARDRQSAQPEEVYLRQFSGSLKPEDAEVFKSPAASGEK
Description: (§1) Advantage was taken of the biophysical properties of certain ion channels. TRPV1 channel and the ATP gated P2X7 receptor can open a wide pore upon prolonged agonist exposure. This pore becomes then permeable to large organic cations like the local anesthetic QX314. It was investigated whether QAQ could be loaded into cells expressing either one of these two channels (P2X7R or TRPV1). If so, specific cells could be targeted with QAQ, and then excitability could be controlled with light. This concept is depicted schematically in FIG. 8.
(§2) It was first determined whether P2X7R expressed in HEK cells could be an entry route for QAQ. P2X7R was co-expressed together with Shaker channel.

[10] = tested on: L type and N type Ca channels (L-type Caν, Caν2.2); test: QAQ photoswitching of Ca channels; format: cell-based
Description: (§3) Experiments were conducted to test the effect of QAQ on various channels.
(§4) Purple light was used in all cases to relieve the block. FIG. 6 depicts a bar graph showing the quantification of photoswitching on individual channels when having 100 μM QAQ in the pipette.

[11] = tested on: native K channels of sensory neurons naturally expressing TRPV1; test: QAQ with capsaicin on sensory neurons of the trigeminal ganglia in culture; format: cell-based; conditions: QAQ applied together with capsaicin
Description: (§5) Hippocampal neurons were transfected with P2X7R. […] In 1 of 13 cells tested, QAQ entered a cell which was not heterologously expressing P2X7R, possibly because this cell was expressing endogenous P2X7 receptors. It was then asked whether QAQ could enter cells naturally expressing either of these channels and looked at sensory neurons. Sensory neurons are activated by sensory input and project towards the central nervous system. Sensory neurons of the trigeminal ganglia naturally express TRPV1 channels. QAQ was applied together with capsaicin on these sensory neurons in in vitro culture.

[12] = tested on: capsaicin-evoked nocifensive behaviors; test: Capsaicin-evoked nocifensive behaviors after hindpaw injection; format: in vivo, mouse; conditions: co-injection with capsaicin into hindpaw, 10 min, versus capsaicin alone
Description: It was shown (Example 3) that QAQ blocks capsaicin-evoked sensory neuron activation in vitro, in a light-dependent manner. It was then tested whether QAQ can block nocifensive responses in vivo, and whether this action can be regulated by light. This experiment consisted of 2 parts: (1) it was tested whether QAQ acts as an analgesic, in the absence of light. […] Injection of capsaicin into the mouse hindpaw elicits a 5-10 min bout of licking and flinching; such responses are blocked by co-application of lidocaine, morphine, and other analgesics (Binshtock et al., 2007 Nature 449:607-10). Because analgesics are molecules that alleviate pain, evaluating the analgesic properties of a new molecule requires induction of discomfort in animals. The ability of QAQ to inhibit capsaicin-evoked nocifensive behaviors was tested. Fourteen mice were used for this experiment: to one set of 7 mice, capsaicin alone was applied by injection; to a second set of 7 mice, capsaicin and QAQ were co-injected. The mice were then placed in a transparent Plexiglas chamber and behavior was video recorded for 10 min. After 10 min, mice were euthanized.

[13] = tested on: Shaker K channel, Kν2.1, Kν3.1, Kν4.2, hippocampal Kν; test: QAQ photoswitching of voltage gated K channels (QAQ in the pipette); format: cell-based
Description: as §3, §4

[14] = tested on: neurons; test: Neuron firing under current clamp with QAQ; format: cell-based; conditions: progressively greater current injected
Description: The effect of QAQ on neurons was investigated. Neuron firing was examined under current clamp, by injecting progressively greater current into the cell, under 2 different wavelengths of light. […] This is because block of Na channels dominates: when Na channels are blocked, the initial phase of the AP is blocked and neurons are silent. Again, QAQ acts like lidocaine in neurons, silencing cells under green light or in the dark.

[15] = target: T5, Shaker channel (Drosophila melanogaster, UniProt P08510); test: QAQ membrane permeance: patch pipette versus external application, HEK cells expressing Shaker channel; format: cell-based
T5 construct: expressed in transfected cells; host or cells: HEK cells
T5 sequence (P08510 whole entry): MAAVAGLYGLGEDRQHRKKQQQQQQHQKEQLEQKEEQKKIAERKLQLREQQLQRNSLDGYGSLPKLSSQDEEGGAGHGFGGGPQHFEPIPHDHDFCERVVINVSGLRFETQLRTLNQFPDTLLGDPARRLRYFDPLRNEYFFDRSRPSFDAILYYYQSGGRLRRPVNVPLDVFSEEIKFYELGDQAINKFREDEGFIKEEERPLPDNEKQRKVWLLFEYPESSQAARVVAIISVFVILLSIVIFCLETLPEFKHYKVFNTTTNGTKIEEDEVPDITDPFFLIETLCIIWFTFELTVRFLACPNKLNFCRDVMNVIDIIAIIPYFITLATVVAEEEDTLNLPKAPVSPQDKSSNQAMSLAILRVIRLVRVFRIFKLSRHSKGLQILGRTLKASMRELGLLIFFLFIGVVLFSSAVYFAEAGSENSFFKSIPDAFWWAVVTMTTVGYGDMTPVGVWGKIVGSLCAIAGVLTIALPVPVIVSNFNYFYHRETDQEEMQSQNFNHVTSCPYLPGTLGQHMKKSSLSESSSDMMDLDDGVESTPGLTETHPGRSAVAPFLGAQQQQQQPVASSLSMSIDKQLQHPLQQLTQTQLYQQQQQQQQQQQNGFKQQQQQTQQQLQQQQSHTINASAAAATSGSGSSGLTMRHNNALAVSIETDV
Description: The K current was observed upon a depolarization to +40 mV under purple 380 nm light.

[16] = tested on: native Na channels expressed in NG108-15 cells (Naν); test: QAQ photoswitching of native Na channels in NG108-15 cells; format: cell-based
Description: as §3, §4

[17] = target: T6, P2X7R (Homo sapiens, UniProt Q99572); test: Loading of QAQ through P2X7R in HEK cells co-expressing Shaker channel; format: cell-based
T6 construct: expressed in transfected cells; host or cells: HEK cells, co-expressed with Shaker channel
T6 sequence (Q99572 1-595): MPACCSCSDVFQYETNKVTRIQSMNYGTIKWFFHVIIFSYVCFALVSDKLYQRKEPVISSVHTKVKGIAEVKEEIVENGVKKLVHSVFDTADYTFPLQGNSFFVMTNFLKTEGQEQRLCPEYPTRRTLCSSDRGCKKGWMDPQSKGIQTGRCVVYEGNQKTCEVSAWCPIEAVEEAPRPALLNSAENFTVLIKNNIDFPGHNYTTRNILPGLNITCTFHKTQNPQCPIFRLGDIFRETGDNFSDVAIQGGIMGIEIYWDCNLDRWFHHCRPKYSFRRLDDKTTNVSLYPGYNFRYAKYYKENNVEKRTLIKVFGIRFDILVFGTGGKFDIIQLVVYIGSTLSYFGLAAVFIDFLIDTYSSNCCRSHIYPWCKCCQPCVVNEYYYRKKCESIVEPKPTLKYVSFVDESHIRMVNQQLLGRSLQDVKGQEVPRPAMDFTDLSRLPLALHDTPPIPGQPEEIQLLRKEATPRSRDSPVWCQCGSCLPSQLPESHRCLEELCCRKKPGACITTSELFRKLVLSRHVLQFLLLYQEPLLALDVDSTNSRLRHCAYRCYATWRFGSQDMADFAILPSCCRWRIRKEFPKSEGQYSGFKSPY
Description: as §1, §2

[18] = target: T6, P2X7R; test: Loading of QAQ into hippocampal neurons transfected with P2X7R; format: cell-based
Description: as §5

[19] = 100 μM QAQ in the pipette, purple light relieves block

Structure (SMILES): C=CC(=O)Nc1ccc(/N=N/c2ccc(NC(=O)C[N+](CC)(CC)CC)cc2)cc1 [AAQ, Acrylamide Azobenzene Quaternary ammonium]
- cis isomer content [1]: 50%
- photosensitization of endogenous K+ channels [2]: strongly photosensitize endogenous K^+
- current block after washout with control solution [3]: relieved within several seconds of washout
- IC50 ([3]; 380 nm light, n=3-5, read-out: IC50 (cis isomer)): 64 µM

Structure (SMILES): CC[N+](CC)(CC)CC(=O)Nc1ccc(N=Nc2ccc(NC(C)=O)cc2)cc1.O=C[O-] [AcAQ, 4-acetamido-4′-(2)-triethylammoniumacetamidoazobenzene formate]
- block of steady-state current [4]: persistently blocked the steady-state current in a light-dependent fashion
- photoswitching after pre-treatment ([4]; extracellular pre-treatment): considerable sustained photoswitching

Structure (SMILES): CC[N+](CC)(CC)CC(=O)Nc1ccc(/N=N/c2ccc(NC(=O)c3ccccc3)cc2)cc1 [BzAQ, 4-benzamido-4′-(2)-triethylammoniumacetamidoazobenzene formate]
- Iss blocked ([5]; 20 μM BzAQ extracellular, Iss at +30 mV compared at 380 and 500 nm): 57+/−6.6%
- action potential firing ([5]; current clamp, cell near threshold, 500 nm light): sufficient to induce action potential firing
- effect on cellular membrane potential ([5]; current clamp, switched from cis to trans): significantly depolarize the cellular membrane potential
- minimal dose able to block >95% of Iss ([6]; Iss relative to that under 380 nm illumination, extracellular treatment in dark): 25 µM
- channels blocked / selectivity [7]: selective for Kν channels
- external or internal blocker [7]: external blocker
- isomeric form that blocks [7]: trans-blocker

- wavelength of first isomeric form [8]: 472 nm
- wavelength of second isomeric form [8]: 550 nm
Structure (SMILES): CCN(CC)c1ccc(/N=N/c2ccc(NC(=O)C[N+](CC)(CC)CC)cc2)cc1 [DAAQ]
- channels blocked / selectivity [7]: able to block Kν channels
- external or internal blocker [7]: external blocker
- isomeric form that blocks [7]: trans-blocker

Structure (SMILES): CCC(=O)Nc1ccc(N=Nc2ccc(NC(=O)C[N+](CC)(CC)CC)cc2)cc1 [EtAcAQ]
- block of steady-state current [4]: persistently blocked the entire steady-state current in a light-dependent fashion

Structure (SMILES): CCCc1ccc(N=Nc2ccc(NC(=O)C[N+](CC)(CC)CC)cc2)cc1.O=C[O-] [PrAQ, 4-propyl-4′-(2)-triethylammoniumacetamidoazobenzene formate]
- block of Iss in the cis form ([6]; 40 nM): 50%
- block by the trans isomer ([6]; 40 nM, 500 nm): without producing obvious block
- isomer preference of block [6]: preferentially blocks in the cis form

Structure (SMILES): CC[N+](CC)(CC)CC(=O)Nc1ccc(/N=N/c2ccc(NC(=O)C[N+](CC)(CC)CC)cc2)cc1 [QAQ]
- loading into cells ([9]; TRPV1 co-expressed with Shaker, capsaicin): could be loaded into cells co-expressing TRPV1 and Shaker channel in the presence of the TRPV1 agonist capsaicin
- photoswitching ([9]; loaded in the presence of capsaicin): photoswitching could be effected
- photosensitization of Ca channels [10]: photosensitize L type and N type Ca channels
- light condition of block [10, 19]: the block occurred in the dark, or under 500 nm light
- photoswitching of native K channels [11]: very robust photoswitching of native K channels
- number of licks [12]: reduced
- time spent paw lifting [12]: reduced
- photoregulation of K channels [13]: photoregulate Shaker K channel and also other K channel subtypes such as Kν2, Kν3 Kν4 and native K channels in hippocampal cells
- light condition of block [13, 19]: the block occurred in the dark, or under 500 nm light
- neuron firing under green light [14]: does at best one action potential (AP), but remains silent
- neuron firing under purple light [14]: fires normally
- membrane permeance [15]: membrane impermeant
- photoregulation of K current, applied through the patch pipette ([15]; 100 μM QAQ, +40 mV, 380 nm versus green light): photoregulation of the K channel current was observed
- photoregulation of K current, externally applied ([15]; external application): no photoregulation of K current was seen
- channels blocked / selectivity [7]: able to block Kν, Naν, and Caν channels
- external or internal blocker [7]: internal blocker
- isomeric form that blocks [7]: trans-blocker
- photosensitization of Na channels [16]: photosensitizes native Na channels expressed in NG108-15 cells
- light condition of block [16, 19]: the block occurred in the dark, or under 500 nm light
- loading into HEK cells ([17]; P2X7R co-expressed with Shaker, ATP coapplied): could be loaded in the HEK cell only if P2X7 channels were expressed and ATP, the agonist for the P2X7 channels, was coapplied
- photoswitching of Shaker channels current ([17]; application of 5 min with ATP): very good photoswitching
- loading into hippocampal neurons ([18]; ATP): could be loaded into cells only when P2X7 receptors were expressed
- cells not heterologously expressing P2X7R that QAQ entered ([18]; cells tested): 1 of 13

Structure (SMILES): C=CCCC(=O)Nc1ccc(N=Nc2ccc(NC(=O)C[N+](CC)(CC)CC)cc2)cc1.O=C[O-] [compound 10, 4-(pent-4-en)amido-4′-(2)-triethylammoniumacetamidoazobenzene formate]
- isomer preference of block [6]: essentially equal block in both cis and trans forms
